Results taken from patent US20240085429A1, “ALTERING PROTEIN FUNCTION BY PHARMACOLOGICAL TARGETING OF MEMBRANE DOMAINS” (University of Virginia Patent Foundation, priority 2021, published 2024).
Where a name gives a salt, the structure may show the parent alone.

How the values were obtained:
[1] = tested on: human peripheral myelin protein 22 (PMP22); test: HTS of FDA-approved drug library for compounds that alter phase partitioning of PMP22 in GPMVs; conditions: for hit class in PMP22 screen: 1184 compound library of FDA-approved drugs; for hit class in PMP22 screen / shift of PMP22 phase preference in favor of the ordered (raft) phase: 10 micromolar; for shift of PMP22 phase preference in favor of the ordered (raft) phase: control value 78%, reproducible at 1 micromolar; for effect on relative ordered (raft) vs. disordered phase proportions: in the absence or presence of PMP22
Source text: By way of example and not limitation, in some embodiments PMP22 containing a MYC epitope sequence was employed in the GPMVs (hereafter referred to as “PMP22”, such as by expressing a MYC-Tagged PMP22 in Hela cells, followed by formation of PMP22 containing GPMVs, followed by addition of a commercial fluorescently labeled anti-MYC antibody to confer fluorescence to PMP22 in GPMVs, thereby making PMP22 detectable to enable its quantitation in the raft phase domains versus in the non-raft phase domains. See Marinko et al. (2020) Proc Natl Acad Sci USA 117(25):14168-14177.
The assay was scaled up to carry out high throughput screens (HTS). The strategy for these screens is similar to those outlined for our approach to finding compounds that shift the raft vs. non-raft phase domain distribution in GPMVs, except that in this case we were interested in discovering compounds that either shift PMP22 out of rafts or enhance its partitioning into the ordered raft phase domain. This pilot HTS screen involved the 1184 compound library of FDA-approved drugs at a concentration of 10 micromolar each and was carried out in the Vanderbilt HTS Core. We predicted that select compounds might sometimes change not only the phase partitioning of PMP22, but also change the actual amounts of ordered (raft) versus disordered phase domains that are present. We also wondered whether PMP22 and certain compounds might act synergistically (through any one of several possible mechanisms) to alter membrane phase behavior. This could potentially cause the compounds to have different effects on the ratio of raft versus disordered domains in the absence relative to the presence of the PMP22 protein. To test these possibilities, we compared the results of our screen to the results of preliminary screens carried out on the same compounds in GPMVs lacking expressed PMP22. This allowed us to directly evaluate the effects of the compounds under both conditions. The plots shown in FIGS. 28A and 28B, as well as additional data not shown reveal several classes of PMP22-impacting hits from this 1184 compound library: […]

GPMVs from HeLa cells = test: Di4 fluorescence lifetime imaging (lipid packing in GPMVs); design: species or system human; conditions: TLCK 1 μM, C6-ceramide 1 μM, MβCD 5 mM
Source text: It was also of interest how TLCK and C6-ceramide impact other properties of the membrane compared to treatments such as cholesterol depletion that are commonly used to disrupt rafts in cells (Zidovetzki & Levitan, 2007). To test this, we examined their effects on membrane lipid packing and fluidity using a fluorescent reporter of membrane packing, Di-4-[…] (Di4) (Jin et al., 2006; Owen et al., 2006; Sezgin et al., 2014; Levental et al., 2020b; Lorent et al., 2020). As a control, we subjected GPMVs to cholesterol depletion using 5 mM MβCD. The photophysical characteristics of Di4, including its lifetime, are dependent on lipid packing in membranes. In particular, a lower Di4 lifetime is indicative of loose packing and a more fluid membrane environment whereas higher Di4 lifetimes point to a less fluid membranes and tighter lipid packing. […] The phase separated vesicles were characterized by two populations of lifetimes, corresponding to the Lo phase (higher lifetime) and Ld phase (lower lifetime) (FIGS. 11A-11F).
GPMVs were prepared as previously described by Sezgin, E, et al., Nat Protoc 2012, 7 (6), 1042-51. In brief, HeLa cells were washed twice with GPMV buffer (2 mM CaCl2)/10 mM HEPES/0.15 M NaCl, pH 7.4), then washed twice with GPMV active buffer (GPMV buffer containing 25 mM formaldehyde and 2 mM DTT). Cells were then incubated with GPMV active buffer for 1-2 hours at 37° C. with shaking at 90-95 RPM. The GPMV-containing supernatant was decanted into a centrifuge tube and GPMVs were allowed to settle for 1 h. Aliquots of GPMVs (100 μL) were pipetted from the bottom of the Eppendorf tube into separate tubes and treated with DMSO (0.1%), 1 μM TLCK, 1 μM C6-ceramide or 5 mM MbCD. After 5 min, Di 4 […] (Di4) (Thermo Scientific) was added to a final concentration of […] from a stock solution of 1 mg/mL Di4 in ethanol. The GPMVs were then sandwiched between two coverslips coated with 1 mg/mL bovine serum albumin (BSA) solution and allowed to incubate for an additional 20 min prior to lifetime measurements.
Di4 lifetime images were performed on a Leica TCS SP8 system comprising a Leica DMi8 inverted scanning confocal microscope with time-correlated single photon counting (TC-SPC) system and an 80 MHz-pulsed supercontinuum white light laser which allows continuously tunable excitation in the visible range coupled with filter-free detection. Samples were imaged using an HC PL APO CS2 63X/1.20 water objective. Di4 was excited at 488 nm and the emission was collected in the 550-800 nm range. The photon count rate was kept under 0.5 photons per laser pulse by adjusting the laser power, and sufficient frames were cumulatively acquired to obtain at least 100 photons per pixel. The fluorescence decay curves were fit with a bi-exponential re-convolution function adjusted to the instrument response function, and the average intensity-weighted lifetime was calculated for individual vesicles or area of interest and represented in the FLIM images as Di4 lifetime. Data are reported from two independent experiments. Statistical analyses were performed using GraphPad Prism 9.3.0.

Compound	hit class in PMP22 screen [1]	shift of PMP22 phase preference in favor of the ordered (raft) phase [1] [%]	effect on relative ordered (raft) vs. disordered phase proportions [1]	phase state of GPMVs in FLIM images (GPMVs from HeLa cells; room temperature)	average Di4 lifetime (GPMVs from HeLa cells; single-phase GPMVs (MβCD: average across all domains), control 2.53±0.06 ns, mean±SD) [ns]
CN(C)c1ccc(C(=C2C=CC(=[N+](C)C)C=C2)c2ccc(N(C)C)cc2)cc1 [Crystal violet]	false positive				
Clc1ccc2c(c1)CCc1cccnc1C2=C1CCNCC1 [Desloratadine]	Class I	~10	without significantly perturbing		
CSc1ccc2c(c1)N(CCC1CCCCN1C)c1ccccc1S2 (stereo not drawn) [Thioridazine-HCl]	Class I	~10	without significantly perturbing		
MβCD				multiple domains with the same lifetime	1.99±0.09
